The source of these data is US20080249092A1, “Novel Quinoline Compounds Capable Of Binding At The Cb2 Receptor” (priority 2006, published 2008).

What is called pEC50 is the EC50 on a negative log10 scale, so that one unit is a factor of ten. Higher therefore signals a low EC50.

pEC50: −log10 of the molar value. Structures can show the parent of a compound that is named as a salt. Bounds are passed on as bounds.

In one experiment the target is T1, human cannabinoid CB2 receptor (Homo sapiens, UniProt P34972).
T1 construct: expressed in transfected cells; host or cells: Saccharomyces cerevisiae strain MMY23 (cassette integrated at the ura3 locus, GPD promoter)
T1 sequence (P34972 whole entry): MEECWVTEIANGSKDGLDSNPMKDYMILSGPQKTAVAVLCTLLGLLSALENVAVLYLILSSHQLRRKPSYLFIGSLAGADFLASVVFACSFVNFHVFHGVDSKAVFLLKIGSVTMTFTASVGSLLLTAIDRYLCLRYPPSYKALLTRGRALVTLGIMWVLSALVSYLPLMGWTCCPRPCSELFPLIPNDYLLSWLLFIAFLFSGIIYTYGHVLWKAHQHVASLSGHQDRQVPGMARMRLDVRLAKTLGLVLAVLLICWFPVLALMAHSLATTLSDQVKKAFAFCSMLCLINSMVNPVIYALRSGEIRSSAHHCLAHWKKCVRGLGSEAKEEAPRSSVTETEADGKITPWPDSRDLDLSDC
Kind of experiment: Cannabinoid CB2 receptor agonist activity in yeast cells (FDGlu fluorescence). It counts as cell-based.
Conditions: not given
The method, then:
The cannabinoid CB2 receptor agonist activity of compounds of formula (I) was determined in accordance with the following experimental method.
Yeast (Saccharomyces cerevisiae) cells expressing the human cannabinoid CB2 receptor were generated by integration of an expression cassette into the ura3 chromosomal locus of yeast strain MMY23. This cassette consisted of DNA sequence encoding the human CB2 receptor flanked by the yeast GPD promoter to the 5′ end of CB2 and a yeast transcriptional terminator sequence to the 3′ end of CB2. MMY23 expresses a yeast/mammalian chimeric G-protein alpha subunit in which the C-terminal 5 amino acids of Gpa1 are replaced with the C-terminal 5 amino acids of human Gαi1/23 (as described in Brown et al. (2000), Yeast 16:11-22). Cells were grown at 30° C. in liquid Synthetic Complete (SC) yeast media (Guthrie and Fink (1991), Methods in Enzymology, Vol. 194) lacking uracil, tryptophan, adenine and leucine to late logarithmic phase (approximately 6 OD600/ml).
Agonists were prepared as 10 mM solutions in DMSO. EC50 values (the concentration required to produce 50% maximal response) were estimated using 4 fold dilutions of between 3- and 5-fold (BiomekFX, Beckman) into DMSO. Agonist solutions in DMSO (1% final assay volume) were transferred into black microtitre plates from NUNC Greiner (384-well). Cells were suspended at a density of 0.2 OD600/ml in SC media lacking histidine, uracil, tryptophan, adenine and leucine and supplemented with 10 mM 3-aminotriazole, 0.1 M sodium phosphate pH 7.0, and 120 μM fluorescein di-β-D-glucopyranoside (FDGlu). This mixture (50 ul per well) was added to agonist in the assay plates (Multidrop 384, Labsystems). After incubation at 30° C. for 24 hours, fluorescence resulting from degradation of FDGlu to fluorescein due to exoglucanase, an endogenous yeast enzyme produced during agonist-stimulated cell growth, was determined using a fluorescence microtitre plate reader (Tecan Spectrofluor or LJL Analyst excitation wavelength: 485 nm; emission wavelength: 535 nm). Fluorescence was plotted against compound concentration and iteratively curve fitted using a four parameter fit to generate a concentration effect value.
Efficacy (Emax) was calculated from the equation
Emax=Max[compound X]−Min[compound X]/Max[HU210]−Min[HU210]×100%
where Max[compound X] and Min[compound X] are the fitted maximum and minimum respectively from the concentration effect curve for compound X, and Max[HU210] and Min[HU210] are the fitted maximum and minimum respectively from the concentration effect curve for (6aR, 10aR)-3-(1,1′-Dimethylheptyl)-6a,7,10,10a-tetrahydro-1-hydroxy-6,6-dimethyl-6H-dibenzo[b,d]pyran-9-methanol (HU210; available from Tocris). Equieffective molar ratio (EMR) values were calculated from the equation
Where EC50 [compound X] is the EC50 of compound X and EC50 [HU210] is the EC50 of HU210.
pEC50 is the negative log of the EC50.
`O=S(=O)(c1ccc(Cl)cc1)c1cnc2c(NCC3CCOCC3)cccc2c1` [Example E3, 3-[(4-Chlorophenyl)sulfonyl]-N-(tetrahydro-2H-pyran-4-ylmethyl)-8-quinolinamine]: the pEC50 is over 6.00.

The same experiment, now with this note: agonist activity; Saccharomyces cerevisiae cells expressing the human CB2 receptor; 24 hours at 30° C.; read-out: pEC50 at the CB2 receptor (converted).
For `O=S(=O)(c1ccccc1)c1cnc2c(NCC3CCOCC3)cccc2c1` [Example E1, 3-(Phenylsulfonyl)-N-(tetrahydro-2H-pyran-4-ylmethyl)-8-quinolinamine], the EC50 is under 1000 nM.

On to `O=S(=O)(c1ccccc1)c1cnc2c(NCCN3CCOCC3)cccc2c1` [Example E2, N-[2-(4-Morpholinyl)ethyl]-3-(phenylsulfonyl)-8-quinolinamine hydrochloride], for which the EC50 is under 10000 nM.

As to `O=S(=O)(c1ccccc1)c1cnc2c(NCc3cccnc3)cccc2c1` [Example E4, 3-(Phenylsulfonyl)-N-(3-pyridinylmethyl)-8-quinolinamine], the EC50 is under 1000 nM.

Regarding `O=S(=O)(c1ccccc1)c1cnc2c(NCCc3ccncc3)cccc2c1` [Example E5, 3-(Phenylsulfonyl)-N-[2-(4-pyridinyl)ethyl]-8-quinolinamine hydrochloride], the EC50 is under 1000 nM.

On to `O=S(=O)(c1ccccc1)c1cnc2c(NCCC3CCOCC3)cccc2c1` [Example E6, 3-(Phenylsulfonyl)-N-[2-(tetrahydro-2H-pyran-4-yl)ethyl]-8-quinolinamine hydrochloride], for which the EC50 was under 1000 nM.

Consider `Cc1cc(CCNc2cccc3cc(S(=O)(=O)c4ccccc4)cnc23)ccn1` [Example E7, N-[2-(2-methyl-4-pyridinyl)ethyl]-3-(phenylsulfonyl)-8-quinolinamine hydrochloride], for which the EC50 was under 1000 nM.
